These results are taken from ChEMBL document CHEMBL4402540, “Structure-Activity Relationship Studies of Small Molecule Modulators of the Staphylococcal Accessory Gene Regulator” (J Med Chem, 2020).

A short description of test [1]: Inhibition of AgrC-1 Staphylococcus epidermidis AH3408 incubated for 24 hrs by fluorescence assay.
A short description of test [2]: Inhibition of AgrC-1 in Staphylococcus aureus RN9222 incubated for 1 hr in presence of AIP agonist by beta-lactamase reporter gene assay. On the technique in general: Reporter assays use an easily measured gene product as a stand-in for the process of interest.
Test [3] can be described thus: Inhibition of AgrC-2 in Staphylococcus aureus RN9372 incubated for 1 hr in presence of AIP agonist by beta-lactamase reporter gene assay.
The target in test [4] is T1, Chloramphenicol acetyltransferase (Staphylococcus epidermidis) (UniProt D2JCN2).
T1 sequence (whole entry): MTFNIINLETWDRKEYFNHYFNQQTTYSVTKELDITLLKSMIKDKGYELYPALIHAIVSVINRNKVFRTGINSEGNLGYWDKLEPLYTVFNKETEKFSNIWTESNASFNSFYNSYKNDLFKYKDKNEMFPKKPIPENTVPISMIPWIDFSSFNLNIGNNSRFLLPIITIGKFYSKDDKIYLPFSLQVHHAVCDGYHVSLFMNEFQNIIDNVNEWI
In words: Activation of Chloramphenicol acetyltransferase activity in Staphylococcus epidermidis Tu3298 at 200 nM and measured every 15 sec for 20 mins (reference value: 12.5 U/mg).

A short description of test [5]: Inhibition of AgrC-3 in Staphylococcus aureus AH1747 incubated for 24 hrs by fluorescence assay.
The nature of test [6]: Inhibition of AgrC-4 in Staphylococcus aureus AH1872 incubated for 24 hrs by fluorescence assay.
Test [7] is described as follows: Inhibition of AgrC-2 in Staphylococcus aureus AH430 incubated for 24 hrs by fluorescence assay.
Test [8] can be described thus: Inhibition of AgrC-1 in Staphylococcus aureus AH1677 incubated for 24 hrs by fluorescence assay.
Test [9] is described as follows: Inhibition of AgrC-1 in Staphylococcus aureus.
Test [10] is described as follows: Inhibition of AgrC-2 in Staphylococcus aureus.
Test [11] in a line: Inhibition of AgrC-4 in Staphylococcus aureus.
The nature of test [12]: Inhibition of AgrC-2 in Staphylococcus aureus RN9372 incubated for 60 to 90 mins in presence of AIP agonist by beta-lactamase reporter gene assay.

Where a SMILES comes first, the peptide text is derived from it. Bridges are numbered along the chain shown (N, C = ends). [ ]: non-standard residue; d: D form. The star is where a group is joined. 6FAM = O=C1OC2(c3ccc(O)cc3Oc3cc(O)ccc32)c2cc(C(=O)*)ccc21; Biotin = O=C1N[C@H]2[C@H](CS[C@H]2CCCCC(=O)*)N1; NMeF = CN[C@@H](Cc1ccccc1)C(=O)O; NMeL = CN[C@@H](CC(C)C)C(=O)O; NMeS = CN[C@@H](CO)C(=O)O; Pent4ynoyl = C#CCCC(=O)*; Dap = NC[C@H](N)C(=O)O; AEEA = NCCOCCOCC(=O)O; Aoc = NCCCCCCCC(=O)O; Ava = NCCCCC(=O)O; Mpa = O=C(O)CCS

For `C[C@H](N)C(=O)N[C@@H](CO)C(=O)N[C@@H](C)C(=O)N[C@H]1CSC(=O)[C@H](Cc2ccccc2)NC(=O)[C@H](Cc2ccc(O)cc2)NC(=O)[C@H](C)NC(=O)[C@H](CO)NC1=O` (H-ASACSAYF; thioester 4-C), the IC50 – broadly, the concentration needed to halve the response being measured – in [1] stood at 2.08 nM.

Take `CC(=O)N[C@H]1CSC(=O)[C@H](Cc2ccccc2)NC(=O)[C@H](CC(C)C)NC(=O)[C@H](CO)NC(=O)[C@H](CO)N(C)C1=O` (Ac-C[NMeS]SLF; thioester 1-C): the results for the IC50 in test [2] and in [3] were 639 nM and 7880 nM, respectively.

`CC(=O)N[C@H]1CSC(=O)[C@H](Cc2ccccc2)N(C)C(=O)[C@H](CC(C)C)NC(=O)CCCCNC1=O` (Ac-C[Ava]L[NMeF]; thioester 1-C): the figures for the IC50 in test [2] and in test [3] were 1140 nM and 50700 nM, respectively.

On to `CC(=O)N[C@H]1CSC(=O)[C@H](Cc2ccccc2)N(C)C(=O)[C@H](CC(C)C)NC(=O)[C@H](CO)NC(=O)[C@H](CO)NC1=O` (Ac-CSSL[NMeF]; thioester 1-C), for which the IC50 in test [2] and in test [3] was above 30000 nM in each case.

`CC(C)[C@H](NC(=O)[C@@H](N)CO)C(=O)N[C@H]1CSC(=O)[C@H](Cc2ccccc2)NC(=O)[C@H](Cc2ccc(O)cc2)NC(=O)[C@H](CO)NC(=O)[C@H](C)NC1=O` (H-SVCASYF; thioester 3-C) gave an Activity in test [4] of 16.1 U/mg.

For `CC(C)C[C@@H]1NC(=O)[C@H](Cc2ccc(O)cc2)NC(=O)[C@H](CO)NC(=O)[C@H](C)NC(=O)[C@@H](NC(=O)[C@@H]2CCCN2C(=O)[C@H](CC(N)=O)NC(=O)[C@H](Cc2ccc(O)cc2)NC(=O)[C@H](CCCCN)NC(=O)[C@H](C)NC(=O)[C@H](C)NC(=O)[C@@H](N)CC(N)=O)CSC1=O` (H-NAAKYNPCASYL; thioester 8-C), the IC50 in test [1] came out at 34.3 nM.

Turning to `C#CCCC(=O)N[C@H](C(=O)N[C@@H](CC(N)=O)C(=O)N[C@H]1CSC(=O)[C@H](CC(C)C)NC(=O)[C@H](CC(C)C)NC(=O)[C@H](Cc2ccccc2)NC(=O)[C@H](C)NC1=O)[C@@H](C)CC` (Pent4ynoyl-INCAFLL; thioester 3-C), the IC50 in test [5] is above 1000 nM; in [6], above 1000 nM; in test [7], above 1000 nM; in [8], 1000 nM.

For `CC(=O)N[C@H]1CNC(=O)[C@H](Cc2ccccc2)NC(=O)[C@H](Cc2ccccc2)NC(=O)CCCCCCCNC1=O` (Ac-[Dap][Aoc]FF; lactam 1-C), the results for the IC50 in [5], in test [7] and in test [8] were 573 nM, 2200 nM and 3940 nM, respectively.

As to `CC(=O)N[C@H]1CSC(=O)[C@H](Cc2ccccc2)NC(=O)[C@H](Cc2ccccc2)NC(=O)CCCCCCCNC1=O` (Ac-C[Aoc]FF; thioester 1-C), the IC50 in test [5] turned out to be 34.8 nM; in [6], 985 nM; in test [7], 495 nM; in test [8], 340 nM.

Consider H-SVCASYF-OH, for which the Activity in test [4] is 8.9 U/mg.

Consider `CC[C@@H](C)[C@H](N)C(=O)N[C@H](CC(N)=O)C(=O)N(C)[C@@H]1CSC(=O)[C@@H](CC(C)C)N(C)C(=O)[C@@H](CC(C)C)NC(=O)[C@@H](Cc2ccccc2)NC(=O)[C@@H](CC(=O)O)NC1=O`, for which the IC50 in test [9] was determined as 137 nM; in [10], 134 nM; in test [11], 106 nM.

Take `CC(=O)N[C@H]1CSC(=O)[C@H](Cc2ccccc2)NC(=O)[C@H](Cc2ccccc2)NC(=O)COCCOCCNC1=O` (Ac-C[AEEA]FF; thioester 1-C): the IC50 in [5] came out at 332 nM; in [6], 5940 nM; in test [7], 583 nM; in test [8] it was 181 nM.

On to `CC(=O)N[C@H]1CNC(=O)[C@H](Cc2ccccc2)N(C)C(=O)[C@H](CC(C)C)NC(=O)[C@H](CO)NC(=O)[C@H](CO)NC1=O` (Ac-[Dap]SSL[NMeF]; lactam 1-C), for which the IC50 in [2] came out at 1390 nM; in [3], 167000 nM.

Turning to `CC(=O)N[C@H]1CNC(=O)[C@H](Cc2ccccc2)NC(=O)[C@H](Cc2ccccc2)NC(=O)COCCOCCNC1=O` (Ac-[Dap][AEEA]FF; lactam 1-C), the IC50 in test [5], in test [6], in test [7] and in [8] was above 10000 nM throughout.

Take `CC(=O)N[C@H]1CSC(=O)[C@H](Cc2ccccc2)NC(=O)[C@H](CC(C)C)NC(=O)[C@H](CO)NC(=O)CNC1=O` (Ac-CGSLF; thioester 1-C): the IC50 was determined as 189 nM in [2] and 1160 nM in test [3].

As to `CC(C)C[C@@H]1NC(=O)[C@H](CC(C)C)NC(=O)[C@H](Cc2ccccc2)NC(=O)[C@H](C)NC(=O)[C@@H](N)CNC1=O` (H-[Dap]AFLL; lactam 1-C), the IC50 in test [5] came out at 0.216 nM; in test [6] it was 0.189 nM; in [7], 13.9 nM; in test [8] it was 1.5 nM.

As for `O=C1COCCOCCNC(=O)[C@H](NC(=O)Cc2ccccc2)CSC(=O)[C@H](Cc2cccc(Cl)c2)NC(=O)[C@H](CC2CCCC2)N1`, the IC50 in test [5] turned out to be 0.387 nM; in [6] it was 3.87 nM; in [7], 6.47 nM; in test [8], 4.88 nM.

For `CC(C)[C@H](NC(=O)[C@H](CO)NC(=O)[C@H](CC(=O)O)NC(=O)CN)C(=O)N[C@H]1CSC(=O)[C@H](Cc2ccccc2)NC(=O)[C@H](Cc2ccc(O)cc2)NC(=O)[C@H](CO)NC(=O)[C@H](C)NC1=O` (H-GDSVCASYF; thioester 5-C), the Activity in test [4] is 15.6 U/mg.

`CC(=O)N[C@H]1CSC(=O)[C@H](Cc2ccccc2)NC(=O)[C@H](CC(C)C)N(C)C(=O)[C@H](CO)NC(=O)[C@H](CO)NC1=O` (Ac-CSS[NMeL]F; thioester 1-C): the IC50 in test [2] and in [3] was above 30000 nM in each case.

In the case of `CC(=O)N[C@@H]1C/C=C\[C@H](Cc2ccccc2)NC(=O)[C@H](CC(C)C)NC(=O)[C@H](CO)NC(=O)[C@H](CO)NC1=O`, the IC50 in test [5], in test [6], in [7] and in test [8] was above 10000 nM each time.

Turning to `CC(=O)N[C@H]1CSC(=O)[C@H](Cc2ccccc2)NC(=O)[C@H](Cc2ccccc2)NC(=O)CCCCCCCCNC1=O`, the IC50 in [5] was found to be 125 nM; in test [6], 3490 nM; in test [7], 479 nM; in test [8] it was 468 nM.

Consider `CC(C)C[C@@H]1NC(=O)[C@H](CO)NC(=O)[C@H](CO)NC(=O)CCSC(=O)[C@H](Cc2ccccc2)N(C)C1=O` ([Mpa]SSL[NMeF]; thioester 1-C), for which the IC50 in test [2] was 1680 nM; in test [5] it was 0.329 nM; in test [6], 0.0957 nM; in test [7], 0.9 nM; in test [3], 47300 nM; in test [8] it was 0.257 nM.

For the compound `CC[C@H](C)[C@H](N)C(=O)N[C@@H](CC(N)=O)C(=O)N[C@H]1CNC(=O)[C@H](CC(C)C)NC(=O)[C@H](CC(C)C)NC(=O)[C@H](Cc2ccccc2)NC(=O)[C@H](CC(=O)O)NC1=O` (H-IN[Dap]DFLL; lactam 3-C), the IC50 in test [5] is 75.2 nM; in test [6], 299 nM; in test [7], above 1000 nM; in test [8] it was above 1000 nM.

`O=C1COCCOCCNC(=O)[C@H](NC(=O)Cc2ccccc2)CSC(=O)[C@H](Cc2cccc(F)c2)NC(=O)[C@H](CC2CCCC2)N1`: the IC50 in test [5] amounted to 0.0918 nM; in test [6], 4.75 nM; in [7], 17.9 nM; in [8], 2.01 nM.

For H-DSVCASYF-OH, in [4], the Activity was 9.8 U/mg.

In the case of `CC[C@H](C)[C@@H]1NC(=O)[C@H](Cc2ccccc2)NC(=O)[C@H](CC(=O)O)NC(=O)[C@@H](NC(=O)[C@@H](NC(=O)[C@H](CO)NC(=O)[C@H](Cc2ccc(O)cc2)NC(=O)CCCC[C@@H]2SC[C@@H]3NC(=O)N[C@@H]32)[C@@H](C)O)CSC(=O)[C@H](CCSC)NC1=O` (Biotin-YSTCDFIM; thioester 4-C), the half-inhibitory concentration (IC50) in test [12] is 40 nM.

In the case of `CC(=O)N[C@H]1CNC(=O)[C@H](Cc2ccccc2)NC(=O)[C@H](Cc2ccccc2)NC(=O)CCCCCCCCNC1=O`, the IC50 in [5] turned out to be 2610 nM; in [7] it was 1340 nM; in [8] it was 4740 nM.

Regarding `CC(=O)N[C@H]1CSC(=O)[C@H](Cc2ccccc2)NC(=O)[C@H](CC(C)C)NC(=O)[C@H](CO)N(C)C(=O)[C@H](CO)NC1=O` (Ac-CS[NMeS]LF; thioester 1-C), the figures for the IC50 in [2] and in [3] were 319 nM and 1050 nM, respectively.

As for `CC(=O)N[C@H]1CSC(=O)[C@H](Cc2ccccc2)NC(=O)[C@H](CC(C)C)NC(=O)[C@H](CO)NC(=O)[C@H](CO)NC1=O` (Ac-CSSLF; thioester 1-C), the IC50 in test [5] worked out at 9.3 nM; in test [6], 140 nM; in test [7], 97 nM; in test [8], 101 nM.

In the case of `CC[C@H](C)[C@H](NC(=O)c1ccc2c(c1)C1(OC2=O)c2ccc(O)cc2Oc2cc(O)ccc21)C(=O)N[C@@H](CC(N)=O)C(=O)N[C@H]1CSC(=O)[C@H](CC(C)C)NC(=O)[C@H](CC(C)C)NC(=O)[C@H](Cc2ccccc2)NC(=O)[C@H](C)NC1=O` (6FAM-INCAFLL; thioester 3-C), the IC50 in test [12] is 22 nM.

H-GDSVCASYF-OH gave an Activity in test [4] of 11.2 U/mg.

As for `CC[C@@H](C)[C@H](N)C(=O)N[C@H](CC(N)=O)C(=O)N(C)[C@@H]1CSC(=O)[C@@H](CC(C)C)N(C)C(=O)[C@@H](CC(C)C)NC(=O)CN(Cc2ccccc2)C(=O)[C@@H](CC(=O)O)NC1=O`, the IC50 in test [9] stood at 4.49 nM; in test [10], 1.95 nM; in [11], 6.59 nM.
